Measured values as given in patent US6361764B1, “Insoluble s-triazine derivatives and their use as UV filters” (Societe L'Oreal S.A., priority 1996, dated 2002).

What was measured:
[1] = solid UV absorption spectrum of a film of the screened compound dispersed in white petroleum jelly; assay type: physicochemical; conditions: 5 g screened compound per 100 g petroleum jelly "Codex 236", film 10 Am thick, Shimadzu UV 2101 PC spectrophotometer
Excerpt: This 2,4,6-tris[(3′-benzotriazol-2-yl-2′-hydroxy-5′-methyl)phenylamino]-s-triazine was screened at 50 μm through a screen of stainless steel-gauze stainless steel assembly. Next, it was dispersed in white petroleum jelly sold under the trade name “Codex 236” by the company Sarega at the melting point of the petroleum jelly and in a proportion of 5 g of screened 2,4,6-tris[(3′-benzotriazol-2-yl-2′-hydroxy-5′-methyl) phenylamino]-s-triazine per 100 g of petroleum jelly. This mixture was then treated with ultrasound in order to ensure homogeneous dispersion. A film 10 Am thick was analysed.
The solid UV absorption spectrum was obtained using a Shimadzu UV 2101 PC spectrophotometer and is represented in FIG. 1.
The solid UV absorption spectrum of this 2,4,6-tris[(3′-benzotriazol-2-yl-2′-hydroxy-5′-tert-octyl)phenylamino]-s-triazine was measured according to the same procedure as in Example 1. This spectrum is represented in FIG. 2.

[2] = UV absorption in CHCl3; assay type: physicochemical

Row | UV λmax ([2]; CHCl3) | UV εmax ([2]; CHCl3, at λmax) | melting point | Compound | solid UV absorption spectrum: range absorbed [1]
1 | 326 nm | 68,600 |  | CC(C)(C)CC(C)(C)c1cc(Nc2nc(Nc3cc(C(C)(C)CC(C)(C)C)cc(-n4nc5ccccc5n4)c3O)nc(Nc3cc(C(C)(C)CC(C)(C)C)cc(-n4nc5ccccc5n4)c3O)n2)c(O)c(-n2nc3ccccc3n2)c1 [Example 2, 2,4,6-tris[(3′-benzotriazol-2-yl-2′-hydroxy-5′-tert-octyl)phenylaminol]-s-triazine] | absorbs throughout the UV radiation range (280-400 nm)
2 |  |  | > 270 °C | Cc1cc(Nc2nc(Nc3cc(C)cc(-n4nc5ccccc5n4)c3O)nc(Nc3cc(C)cc(-n4nc5ccccc5n4)c3O)n2)c(O)c(-n2nc3ccccc3n2)c1 [Example 1, 2,4,6-tris[(3′-benzotriazol-2-yl-2′-hydroxy-5′-methyl)phenylamino]-s-triazine] | absorbs throughout the UV radiation range (280-400 nm)
